139 compounds from a melting point compilation (Tetko et al.) can be followed below.

For the data set the following is noted: a range is the spread between reports.
Compound `CN1C(=C(O)Nc2ccccn2)C(=O)c2ccccc2S1(=O)=O` showed a melting point of 198 to 199 °C. The same measure for `Cc1ccc2oc(=O)ccc2c1`: 76 to 76.5 °C; for `CCCCCCCCCCCCCCCO`: 45.5 to 46 °C.

In the case of `CCCCCCCCCCCCS`, the melting point was -8 to -7 °C. With `COc1cccc(OC)c1OC` the figure was 44 to 48.5 °C; with `COC(=O)CCC(=O)OC`, 19 to 19.5 °C. The same measure for `COc1ccc(Cl)cc1N`: 82 to 83 °C; for `CC(F)(F)F`: -111 °C; for `O=C1OC(=O)c2cc(Cl)c(Cl)cc21`: 186 to 188 °C.

`CN[C@@H](C)[C@H](O)c1ccccc1` had a melting point of 34 to 36 °C. With `O=C1CCC(=O)O1` the figure was 119 to 120 °C. `CCCCNCCCC` had a melting point of -62 to -60 °C. Consider `COC(=O)c1cccnc1`, for which the melting point lay in the range of 42 to 42.5 °C. With `CCOS(=O)(=O)OCC` the figure was -25 to -24 °C. With `CCN1C(=O)C=CC1=O` the figure was 44 to 45.5 °C; with `CCCCC(N)=O`, 103 to 106 °C; with `O=[N+]([O-])c1cc(Cl)cc(Cl)c1`, 64 to 65.4 °C. `O=S(=O)(F)F` yielded a melting point of -136 °C. The same measure for `CC(C)CNCC(C)C`: -77 to -73.5 °C; for `N#Cc1ccccc1`: -13 to -12.7 °C. With `Cc1nc2ccccc2[nH]1` the figure was 176 °C; with `O=C(O)CCC(=O)c1ccccc1`, 117 to 118 °C. In the case of `c1ccc(CSc2ccccc2)cc1`, the melting point fell in the range of 41 to 43.5 °C. The same measure for `CC(=O)NBr`: 104 °C. With `O=[N+]([O-])c1ccco1` the figure was 30 to 31 °C; with `c1ccc(P(c2ccccc2)c2ccccc2)cc1`, 80 to 80.5 °C.

Turning to `CC(=O)c1ccccc1`, the melting point was 19 to 20.5 °C. With `CCC(S)CC` the figure was -111 °C; with `CC(C)CBr`, -119 to -117 °C; with `CCCCCCCCCCC`, -26 to -25.6 °C.

`CC(=O)Nc1ccc(F)cc1`: the melting point is 152 to 154 °C. The same measure for `Oc1ccc(Cl)cc1Cc1ccccc1`: 48 to 48.5 °C. The same measure for `COc1ccc(C(=O)O)cc1OC`: 180 to 181 °C; for `Cc1cccc(-c2ccccc2)c1`: 4.5 to 5 °C. With `CCOC(=O)c1cc(C)n[nH]1` the figure was 82 to 87 °C. `Cc1cc(O)cc(O)c1` yielded a melting point of 107 to 108 °C.

The compound `O=Cc1ccnc2ccccc12` had a melting point of 50 to 51 °C. With `CC(C)c1ccc2ccccc2c1` the figure was 14 to 14.5 °C.

As to `OCc1c(Cl)cccc1Cl`, the melting point is 97 to 98 °C. With `C1CCOC1` the figure was -108 °C; with `O=C(O)c1ccc2ccccc2n1`, 156 to 158 °C; with `NS(=O)(=O)c1ccc([N+](=O)[O-])cc1`, 179 to 180 °C. With `CC(CO)(CO)[N+](=O)[O-]` the figure was 150 °C; with `C=Cc1ccc(N)cc1`, 23.5 to 26 °C. The same measure for `O=C(c1ccccc1)c1ccccn1`: 42 to 43 °C; for `CCCCCCCCCCCCCCCCCCCC`: 36 to 37 °C. Regarding `c1ccc(-c2ccc(-c3ccc(-c4ccccc4)cc3)cc2)cc1`, the melting point fell in the range of 317 to 320 °C. With `CCCCOc1ccc(O)cc1` the figure was 65 to 65.5 °C. The same measure for `O=Cc1ccccc1C=O`: 56 to 56.5 °C; for `CCOC(=O)c1csc(C)n1`: 55 to 57 °C; for `OCc1cc(Br)ccc1O`: 109 to 113 °C. Turning to `CC(C)(O)CCC(C)(C)O`, the melting point fell in the range of 89 to 92 °C. Compound `c1ccc(Cc2ccc(-c3ccccc3)cc2)cc1` displayed a melting point of 85 to 86 °C.

With `O=[N+]([O-])c1ccccc1CCl`, the melting point lay within 47 to 51 °C.

Compound `CSc1ccc(C(=O)O)cc1` returned a melting point of 194 to 195 °C. With `COc1cccc(O)c1O` the figure was 42 to 42.8 °C; with `OC(c1ccccc1)c1ccccc1`, 66 to 69 °C. The compound `CC(C)(C)c1cccc(C(C)(C)C)n1` returned a melting point of 2 to 2.2 °C. The same measure for `CC12CCC3c4ccc(O)cc4CCC3C1CCC2=O` (centres undefined): 255 to 259 °C; for `OCC1OC(OC2(CO)OC(CO)C(O)C2O)C(O)C(O)C1O` (centres undefined): 186 to 188 °C. With `Cc1ccccc1C(=O)O` the figure was 104 to 108 °C. The same measure for `Cc1ccc(CC(=O)O)cc1`: 92 to 93 °C; for `O=[N+]([O-])c1ccc(O)c(Cl)c1`: 106 to 110 °C; for `CN1CCCC1=O`: -24 to -23 °C.

The compound `Nc1ccc(Cl)cc1Cl` yielded a melting point of 61 to 63.5 °C. `CCCCCCCCCC(C)O` (centres undefined) came in with a melting point of 0 to 2 °C.

Consider `Oc1c(Cl)cc(Cl)c2cccnc12`, for which the melting point fell in the range of 180 to 181 °C. The compound `CN1C(=O)CCC1=O` had a melting point of 66 to 71 °C. The same measure for `Nc1ccccc1C(=O)O`: 144 to 147 °C; for `C=C(C)c1ccccc1`: -23.2 to -23 °C; for `CCc1ccc(Cl)cc1`: -63 to -62.6 °C. With `O=C(Cl)c1cccc(C(=O)Cl)c1` the figure was 43.5 to 44 °C. `O=C(O)CC(O)(CC(=O)O)C(=O)O` returned a melting point of 153 to 154 °C. With `O=C(Cl)CCc1ccccc1` the figure was -7 to -2 °C. With `CCCI` the figure was -101 °C; with `CC(C)(C)C(O)C(Oc1ccc(Cl)cc1)n1cncn1` (centres undefined), 134 to 138 °C; with `O=C(O)CCC(=O)C(=O)O`, 115 to 116 °C. The same measure for `COC(=O)c1cccc(O)c1`: 71 to 74 °C; for `CCc1ccc(N)cc1`: -5 to -4.8 °C.

In the case of `Sc1ncc[nH]1`, the melting point is 225 to 230 °C. With `Nc1cccc2ccccc12` the figure was 48 to 49.2 °C; with `Oc1ccc(Oc2ccccc2)cc1`, 80 to 84 °C.

Turning to `SC(c1ccccc1)(c1ccccc1)c1ccccc1`, the melting point was 105 to 106 °C. With `N#C/C=C/C#N` the figure was 96.8 to 97 °C; with `Cc1n[nH]c(=O)[nH]c1=O`, 211 to 213 °C. The same measure for `Clc1ccc(C(c2ccccc2Cl)C(Cl)(Cl)Cl)cc1` (centres undefined): 74.2 to 75 °C; for `CC=CC(C)CC` (centres undefined): -126 °C; for `O=c1cc(-c2ccccc2)oc2c1ccc1ccccc12`: 153 to 158 °C. With `O=C(Oc1ccccc1)c1ccccc1O` the figure was 42 to 43 °C.

Regarding `N#Cc1c2ccccc2cc2ccccc12`, the melting point lay in the range of 175 to 177 °C. Take `CC(C)COC(=O)C(C)C`: the melting point is -81 to -80 °C.

On to `ClC(c1ccccc1)c1ccccc1`, for which the melting point lay within 16 to 19 °C. Regarding `CC(Cl)C(Cl)(Cl)Cl` (centres undefined), the melting point was -65 to -64 °C. The same measure for `CC(C)(C)C(=O)O`: 33 to 36 °C; for `Cc1ccc(-c2ccccc2)cc1`: 46 to 49.5 °C; for `COP(N)(=O)SC` (centres undefined): 45 to 46 °C. Regarding `C=C1C2CCC(C2)C1(C)C` (centres undefined), the melting point lay in the range of 50 to 52 °C. Compound `NC(=O)c1ccc(N)cc1` showed a melting point of 182 to 183 °C.

Compound `NC(=O)NO` registered a melting point of 141 to 144 °C. The same measure for `Cc1ccc(O)c(O)c1`: 65 to 68 °C. With `O=C(O)CBr` the figure was 47 to 50 °C; with `CCCCCCCCOC(=O)c1cc(O)c(O)c(O)c1`, 99 to 102 °C; with `C=CCCCCCCCCCCCC`, -13 to -12 °C. The same measure for `CCOC(=O)c1cc2ccccc2[nH]1`: 124 °C; for `CCCCCCCCCCCCCCC(=O)O`: 52 to 53 °C; for `CCCCCCCCCCN`: 13 to 17 °C. The compound `CCC(C)(C)CC` had a melting point of -135 to -134 °C.

In the case of `O=C1c2ccccc2CCc2ccccc21`, the melting point is 30 to 33 °C. With `CCCCCCCCCCCC(=O)CCCCCCCCCCC` the figure was 67 to 70.2 °C; with `OCCCCCCCCCCCCO`, 81.3 to 83 °C. With `Cc1ccc(S)c(S)c1` the figure was 29 to 31 °C. The compound `Clc1ccc2ccccc2n1` displayed a melting point of 36 to 38 °C. With `C1COCCO1` the figure was 11.8 to 12 °C. The same measure for `c1ccc(CSCc2ccccc2)cc1`: 49 to 49.5 °C; for `Clc1cccc(Cl)c1Cl`: 52.6 to 55 °C; for `Clc1cncc(Cl)c1`: 65 to 66 °C. With `O=C(/C=C1\Cc2ccccc21)c1ccccc1` the figure was 50 to 55 °C; with `NS(=O)(=O)c1cc(C(=O)O)ccc1Cl`, 257 to 258 °C. `O=C(O)c1ccc([N+](=O)[O-])o1` showed a melting point of 184 to 187 °C. The same measure for `Nc1c(Br)cc(Br)cc1Br`: 120 to 122 °C; for `CCOC(=O)C(=O)OCC`: -41 to -40 °C; for `OC1CCCC1`: -20 to -16.2 °C. With `C=CC=C` the figure was -113 to -109 °C. With `Nc1cc(Br)ccc1Br` the figure was 51 to 54 °C. As for `CCc1ccccc1`, the melting point is -95 to -94.9 °C. Take `O=C(C=Cc1cccc([N+](=O)[O-])c1)c1ccccc1`: the melting point came to 146 °C.

For `O=C(O)c1cc(-c2ccc(F)cc2F)ccc1O`, the melting point lay within 210 to 216 °C. The compound `CO[C@@H]1O[C@H](CO)[C@H](O)[C@H](O)[C@H]1O` returned a melting point of 172 to 177 °C. The same measure for `CCCCOCCO`: -79 to -74.8 °C; for `NNC(=O)c1cccc(Br)c1`: 156 to 158 °C; for `c1ccc(C(c2ccccc2)(c2ccccc2)c2ccccc2)cc1`: 282 to 283 °C. As for `O=C1CCCC(=O)C1`, the melting point fell in the range of 103 to 106 °C. With `O=Cc1c[nH]c2ccccc12` the figure was 196 to 197 °C; with `O=C1C=CC(=O)C2C3C=CC(C3)C12` (centres undefined), 73 to 77.5 °C. On to `CCCCCCC=CCCCCCCCC(=O)O`, for which the melting point is -0.1 to 0.5 °C. As for `c1cnccn1`, the melting point fell in the range of 53 to 55 °C. With `Cc1ccc(Cc2ccccc2)cc1` the figure was 4.58 to 5 °C; with `CC12CCC(C(=O)C1=O)C2(C)C` (centres undefined), 199 to 200 °C. With `CCCC(N)=O` the figure was 115 to 116 °C.

Broadly, the melting point is the temperature, or range, at which the solid turns liquid.
